Source: patent US9175024B2, “Platinum compound having amino or alkylamino-containing succinic acid derivatives as leaving group, preparation method thereof, and use thereof” (BEIJING FSWELCOME TECHNOLOGY DEVELOPMENT CO., LTD., priority 2011, dated 2015)

Tests used:
normal mice = test: Acute toxic effect of platinum complex on normal mice (LD50, single intravenous administration); format: in vivo, Kunming mice; settings: single intravenous administration in 5% glucose solution, 14 days observation, Bliss method
Method: (§1) Kunming mice at 4˜6 weeks old and at the weight of 18˜22 g were taken, 50% male and 50% female. Embodiment platinum compound was dissolved with 5% glucose solution. […] Mortality and toxicity were observed after administration, totally observing 14 days, LD50 value was calculated with Bliss method according to mortality.

Lung cancer H292 = test: MTT cytotoxicity, lung cancer H292; format: cell-based; settings: n = 6, Lung cancer H292
Method: (§2) Several kinds of tumor cells in exponential growth phase were prepared into single cell suspension, inoculated on 96 pore plat at the density of 4×10^4/hole, cultivated for 24 hours to enable to adhere to wall with 1640 culture medium containing 10% fetal calf serum (complete medium) at 37° C.; the final culture volume was 100 μl. Cell morphology was observed after culture for 24 hours.

Testis cell ST = test: MTT cytotoxicity, testis cell ST; format: cell-based; settings: n = 6, Testis cell ST
Method: as §2

Gastric cancer MGC803 = test: MTT cytotoxicity, gastric cancer MGC803; format: cell-based; settings: n = 6, Gastric cancer MGC803
Method: as §2

Esophagus cancer ECA109 = test: MTT cytotoxicity, esophagus cancer ECA109; format: cell-based; settings: n = 6, Esophagus cancer ECA109
Method: as §2

breast cancer MCF-7 = test: In vivo antitumor activity, breast cancer MCF-7 in nude mice; settings: MCF-7 in female nude mice, 10 mg (platinum)/kg, once a week, 4 times, tumor weighed 4 weeks later
[1] = Solubility in water of the embodiment and contrast compounds
[2] = tested on: Pulmonary epithelial cell BEAS-2B; test: MTT cytotoxicity, pulmonary epithelial cell BEAS-2B; format: cell-based; settings: n = 6, Pulmonary epithelial cell BEAS-2B
Method: as §2

Lewis lung cancer = test: MTT cytotoxicity, Lewis lung cancer; format: cell-based; settings: n = 6, Lewis lung cancer
Method: as §2

Colon cancer SW480 = test: MTT cytotoxicity, colon cancer SW480; format: cell-based; settings: n = 6, Colon cancer SW480
Method: as §2

[3] = Acute toxic effect of platinum complex on normal mice (LD50, single intravenous administration); format: in vivo, Kunming mice; settings: both sexes, Kunming, mouse, in vivo; single intravenous administration in 5% glucose solution, 14 days observation, Bliss method
Method: as §1

physchem = settings: water

Structure (SMILES) | LD50 value (normal mice) [mmol/kg] | IC50 (Lung cancer H292) [µM] | IC50 (Testis cell ST) [µM] | IC50 (Gastric cancer MGC803) [µM] | IC50 (Esophagus cancer ECA109) [µM] | Tumor inhibition rate (x ± SD) (breast cancer MCF-7) | solubility [1] [mg/mL] | IC50 [2] [µM] | IC50 (Lewis lung cancer) [µM] | IC50 (Colon cancer SW480) [µM] | LD50 at 14 days [3] [µmol/kg] | solubility (physchem) [mg/mL]
CN(C)CCC1CC(=O)[O][Pt]2([NH]CC(CO)(CO)C[NH]2)[O]C1=O (stereo not drawn) [Compound 22, [2-(2-dimethyl amino ethyl)-succinato].[Cis-1,3-(2,2-dihydroxytmethyl)-propyldiamine]platinum (II)] | 0.452 | 65 | 52 | 15 | 17 | 70.8 ± 10.12 9% | 205 |  |  |  |  | 
CCN(CC)CCCC1CC(=O)[O][Pt]2([NH]C3CCC3[NH]2)[O]C1=O (stereo not drawn) [Compound 16, [2-(3-diethylamino propyl)-succinato].[Cis-(1,2-trans-cyclobutyldiamine)]platinum (II)] | 0.623 | 8 |  |  |  | 70.4 ± 10.81 9% | 186 | 45 | 33 | 84 |  | 
CN(C)CCC(CC(=O)[O-])C(=O)[O-].NCC1CCC1CN.[Pt+2] (racemic) [Compound 23, [2-(2-dimethylaminoethyl)-succinato].[Cis-1,4-(trans-2,3-cyclobutyl)-butyldiamine]platinum (II)] | 0.512 | 51 | 18 | 146 | 102 | 85.1 ± 10.37 9% | 165 |  |  |  |  | 
CCN(CC)CCCCC1CC(=O)[O][Pt]2([NH]C3CCCCC3[NH]2)[O]C1=O.O=P(O)(O)O (stereo not drawn) [Compound 29, [2-(4-diethylamino butyl)-succinato].[Cis-(1,2-trans-cyclohexyldiamine)]platinum (II) phosphate] | 0.698 | 3 | 5 | 7 | 6 | 82.2 ± 10.82 9% |  |  |  |  |  | 
CCN(CC)CCCC(CC(=O)[O-])C(=O)[O-].NC1CC1N.[Pt+2] (racemic) [Compound 17, [2-(3-diethylamino propyl)-succinato].[Cis-(1,2-trans-cyclopropyldiamine)]platinum (II)] | 0.581 | 31 | 51 | 13 | 72 | 82.5 ± 11.34 9% | 195 |  |  |  |  | 
CCN(CC)CCC1CC(=O)[O][Pt]2([NH]CC3(CCOCC3)C[NH]2)[O]C1=O (stereo not drawn) [Compound 26, [2-(2-diethylaminoethyl)-succinato].[Cis-1,3-(2,2-(4-oxacyclohexyl))-propyldiamine]platinum (II)] | 0.526 | 47 | 44 | 35 | 32 | 76.4 ± 14.85 9% | 165 |  |  |  |  | 
CN(C)CCC(CC(=O)[O-])C(=O)[O-].NCCN.[Pt+2] (stereo not drawn) [Compound 18, [2-(2-dimethylaminoethyl)-succinato].[Cis-1,2-ethyldiamine]platinum (II)] | 0.532 | 31 | 10 | 121 | 62 | 71.8 ± 12.01 9% | 226 |  |  |  |  | 
CCCN(CCC)CCCC1CC(=O)[O][Pt]([NH2])([NH2])[O]C1=O (stereo not drawn) [Compound 6, [2-(3-di-n-propylamino propyl)-succinato].[Cis-diamine]platinum (II)] |  |  |  |  |  |  |  |  |  |  | 449 | 130
[NH2][Pt]1([NH2])[O]C(=O)CC(CCCN2CCCC2)C(=O)[O]1 (stereo not drawn) [Compound 8, [2-(3-(1-pyrrolidyl)-propyl)-succinato].[Cis-diamine]platinum (II)] |  |  |  |  |  |  |  |  |  |  | 605 | 135
CCN(CC)CCC(CC(=O)[O-])C(=O)[O-].NC1CCC(N)CC1.[Pt+2] (stereo not drawn) [Compound 25, [2-(2-diethylaminoethyl)-succinato].[Cis-1,4-cyclohexyldiamine]platinum (II)] | 0.459 | 106 | 102 | 96 | 116 | 66.9 ± 9.49 9% | 125 |  |  |  |  | 
[NH2][Pt]1([NH2])[O]C(=O)CC(CCCN2CCCCC2)C(=O)[O]1 (stereo not drawn) [Compound 7, [2-(3-(1-piperidyl)-propyl)-succinato].[Cis-diamine]platinum (II)] |  |  |  |  |  |  |  |  |  |  | 623 | 139
CN(C)CCCC1CC(=O)[O][Pt]([NH2])([NH2])[O]C1=O (stereo not drawn) [Compound 3, [2-(3-dimethylamino propyl)-succinato].[Cis-diamine]platinum (II)] |  |  |  |  |  |  |  |  |  |  | 521 | 150
NCCCC1CC(=O)[O][Pt]([NH2])([NH2])[O]C1=O (stereo not drawn) [Compound 4, [2-(3-amino propyl)-succinato].[Cis-diamine]platinum (II)] |  |  |  |  |  |  |  |  |  |  | 556 | 155
CCN(CC)CCCCC1CC(=O)[O][Pt]([NH2])([NH2])[O]C1=O (stereo not drawn) [Compound 27, [2-(4-diethylamino butyl)-succinato].[Cis-diamine]platinum (II) acetate] |  |  |  |  |  |  |  |  |  |  | 557 | 143
CNCCC1CC(=O)[O][Pt]([NH2])([NH2])[O]C1=O (stereo not drawn) [Compound 1, [2-(2-methylaminoethyl)-succinato].[Cis-diamine]platinum (II)] |  |  |  |  |  |  |  |  |  |  | 523 | 208
CCN(CC)CCCCC(CC(=O)[O-])C(=O)[O-].NCCN.[Pt+2] (stereo not drawn) [Compound 28, [2-(4-diethylamino butyl)-succinato].[Cis-1,2-ethylenediamine]platinum (II) toluenesulfonate] | 0.612 | 99 | 138 | 162 | 56 | 76.4 ± 9.78 9% | 187 |  |  |  |  | 
CCN(CC)CCC1CC(=O)[O][Pt]2([NH]CCC[NH]2)[O]C1=O (stereo not drawn) [Compound 19, [2-(2-diethylaminoethyl)-succinato].[Cis-1,3-propyldiamine]platinum (II)] | 0.454 | 102 | 12 | 117 | 8 | 65.3 ± 9.15 9% | 200 |  |  |  |  | 
CCN(CC)CCCC(CC(=O)[O-])C(=O)[O-].NC1CCCC1N.[Pt+2] (racemic) [Compound 15, [2-(3-diethylamino propyl)-succinato].[Cis-(1,2-trans-cyclopentyldiamine)]platinum (II)] | 0.528 | 145 |  |  |  | 73.5 ± 12.31 9% | 151 | 15 | 51 | 32 |  | 
CCCN(CCC)CCCC(CC(=O)[O-])C(=O)[O-].N[C@@H]1CCCC[C@H]1N.[Pt+2] (stereo not drawn) [Compound 14, [2-(3-di-n-propylamino propyl)-succinato].[Cis-(1,2-trans-cyclohexyldiamine)]platinum (II)] | 0.467 | 9 |  |  |  | 70.1 ± 11.55 9% |  | 8 | 37 | 51 |  | 
CCN(CC)CCC1CC(=O)[O][Pt]2([NH]C(CO)C(CO)[NH]2)[O]C1=O (stereo not drawn) [Compound 21, [2-(2-diethyl amino ethyl)-succinato].[Cis-1,2-(1,2-dihydroxymethyl)-ethyldiamine]platinum (II)] | 0.681 | 21 | 143 | 109 | 84 | 68.3 ± 10.88 9% | 176 |  |  |  |  | 
CCCN(CCC)CCCC(CC(=O)[O-])C(=O)[O-].NCCCCN.[Pt+2] (stereo not drawn) [Compound 20, [2-(3-di-n-propylaminopropyl)-succinato].[Cis-1,4-butyldiamine]platinum (II)] | 0.513 | 59 | 22 | 66 | 13 | 66.7 ± 10.61 9% | 162 |  |  |  |  | 
CCN(CC)CCC(CC(=O)[O-])C(=O)[O-].NCC1CCC1CN.[Pt+2] (racemic) [Compound 24, [2-(2-diethylamino ethyl)-succinato].[Cis-1,4-(trans-2,3-cyclobutyl)-butanediamine]platinum (II)] | 0.525 | 25 | 12 | 119 | 71 | 69.3 ± 10.13 9% | 176 |  |  |  |  | 
CCN(CC)CCC1CC(=O)[O][Pt]([NH2])([NH2])[O]C1=O (stereo not drawn) [Compound 5, [2-(2-diethylaminoethyl)-succinato].[Cis-diamine]platinum (II)] |  |  |  |  |  |  |  |  |  |  | 652 | 166
